We go through six compounds from patent US11325889B2, “Substituted 3-((3-aminophenyl)amino)piperidine-2,6-dione compounds, compositions thereof, and methods of treatment therewith” (Celgene Corporation, priority 2018, dated 2022).

Like-named read-outs stand apart in the source and are kept apart here.

The experiment addresses T1, AR protein in VCaP cells (Homo sapiens, UniProt P10275).
T1 construct: endogenous in cells; host or cells: VCaP cells
T1 sequence (P10275 1-920): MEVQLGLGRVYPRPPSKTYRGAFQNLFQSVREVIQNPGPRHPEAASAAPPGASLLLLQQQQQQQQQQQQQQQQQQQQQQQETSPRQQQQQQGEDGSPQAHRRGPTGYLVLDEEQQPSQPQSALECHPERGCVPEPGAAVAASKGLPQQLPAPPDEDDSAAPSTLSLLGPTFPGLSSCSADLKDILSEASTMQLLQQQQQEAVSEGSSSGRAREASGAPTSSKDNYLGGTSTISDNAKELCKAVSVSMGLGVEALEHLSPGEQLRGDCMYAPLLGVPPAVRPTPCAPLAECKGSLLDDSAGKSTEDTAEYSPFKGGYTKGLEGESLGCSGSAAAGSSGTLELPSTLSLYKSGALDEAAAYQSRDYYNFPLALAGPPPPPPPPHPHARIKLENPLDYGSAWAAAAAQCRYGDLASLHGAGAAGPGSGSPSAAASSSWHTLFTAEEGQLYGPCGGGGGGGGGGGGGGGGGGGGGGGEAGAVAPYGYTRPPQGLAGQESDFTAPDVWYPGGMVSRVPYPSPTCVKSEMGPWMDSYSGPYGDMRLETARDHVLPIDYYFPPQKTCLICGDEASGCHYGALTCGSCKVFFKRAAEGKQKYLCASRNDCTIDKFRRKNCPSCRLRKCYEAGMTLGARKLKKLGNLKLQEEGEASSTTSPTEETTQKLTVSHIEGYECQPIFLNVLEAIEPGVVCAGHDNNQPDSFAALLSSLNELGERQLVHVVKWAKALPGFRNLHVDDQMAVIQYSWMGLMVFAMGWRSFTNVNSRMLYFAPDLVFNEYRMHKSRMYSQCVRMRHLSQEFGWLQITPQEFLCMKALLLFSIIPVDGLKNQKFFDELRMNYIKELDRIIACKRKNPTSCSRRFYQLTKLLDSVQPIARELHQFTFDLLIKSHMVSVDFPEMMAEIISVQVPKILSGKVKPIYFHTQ
Briefly: VCAP AR Degradation Assay (AR ELISA, 24 h). The settings on record: for Y (lowest measured AR level normalized to DMSO control): AR degradation efficiency; for DC50: concentration of compound when AR level = 50% of DMSO control. In kind it is cell-based. In short, it runs like this:
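VCaP cells in DMEM with 8% FBS exposed for 24 h at 37° C to a 10-point, 1:3 series (final top concentration […]; 0.1% DMSO control). Lysate AR measured by sandwich ELISA and normalized to DMSO as percent of control. DC50, EC50 and lowest AR level (Y) from four-parameter logistic fit.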

Broadly, the DC50 is the concentration giving 50% degradation. In the case of `CCc1cc(N2C(=S)N(c3cnc(C#N)c(C(F)(F)F)c3)C(=O)C2(C)C)ccc1OCCC1CCN([C@H](C)C(=O)Nc2cccc(N[C@@H]3CCC(=O)NC3=O)c2)CC1` [Cmpd 45, (R)-2-(4-(2-(4-(3-(6-cyano-5-(trifluoromethyl)pyridin-3-yl)-5,5-dimethyl-4-oxo-2-thioxoimidazolidin-1-yl)-2-ethylphenoxy)ethyl)piperidin-1-yl)-N-(3-((R)-2,6-dioxopiperidin-3-ylamino)phenyl)propanamide], the “Y (lowest measured AR level normalized to DMSO control)” value was “* (0<Y<=25%)”. In addition, the DC50 (read-out: DC50) is less than 100 nM.
On the same counts, the results for `CCc1cc(N2C(=S)N(c3cnc(C#N)c(C(F)(F)F)c3)C(=O)C23CCC3)ccc1OCCC1CCN(CC(=O)Nc2cc(Cl)cc(NC3CCC(=O)NC3=O)c2)CC1` (stereo not drawn) [Cmpd 27, N-(3-chloro-5-(2,6-dioxopiperidin-3-ylamino)phenyl)-2-(4-(2-(4-(7-(6-cyano-5-(trifluoromethyl)pyridin-3-yl)-8-oxo-6-thioxo-5,7-diazaspiro[3.4]octan-5-yl)-2-ethylphenoxy)ethyl)piperidin-1-yl)acetamide] are “* (0<Y<=25%)” and less than 100 nM.
As for `CCc1cc(N2C(=S)N(c3cnc(C#N)c(C(F)(F)F)c3)C(=O)C2(C)C)ccc1OCC[C@H]1C[C@H]2CC[C@@H](C1)N2CC(=O)Nc1cccc(NC2CCC(=O)NC2=O)c1` (stereo partly drawn) [Cmpd 65, 2-((1R,3r,5S)-3-(2-(4-(3-(6-cyano-5-(trifluoromethyl)pyridin-3-yl)-5,5-dimethyl-4-oxo-2-thioxoimidazolidin-1-yl)-2-ethylphenoxy)ethyl)-8-azabicyclo[3.2.1]octan-8-yl)-N-(3-(2,6-dioxopiperidin-3-ylamino)phenyl)acetamide], the “Y (lowest measured AR level normalized to DMSO control)” value is listed as “* (0<Y<=25%)” and the DC50 was less than 100 nM.
Turning to `CCc1cc(N2C(=S)N(c3cnc(C#N)c(C(F)(F)F)c3)C(=O)C23CCC3)ccc1OCCC1CCN([C@@H](C)C(=O)Nc2cccc(NC3CCC(=O)NC3=O)c2)CC1` (stereo partly drawn) [Cmpd 83, (2S)-2-(4-(2-(4-(7-(6-cyano-5-(trifluoromethyl)pyridin-3-yl)-8-oxo-6-thioxo-5,7-diazaspiro[3.4]octan-5-yl)-2-ethylphenoxy)ethyl)piperidin-1-yl)-N-(3-(2,6-dioxopiperidin-3-ylamino)phenyl)propanamide], the “Y (lowest measured AR level normalized to DMSO control)” value is given as “* (0<Y<=25%)”. Also, for the setting “read-out: DC50”, the DC50 is less than 100 nM.
On the same counts, the results for `CCc1cc(N2C(=S)N(c3ccc(C#N)c(C(F)(F)F)c3)C(=O)C2(C)C)ccc1OCCC1CCN(CC(=O)Nc2cc(C#N)cc(NC3CCC(=O)NC3=O)c2)CC1` (stereo not drawn) [Cmpd 40, 2-(4-(2-(4-(3-(4-cyano-3-(trifluoromethyl)phenyl)-5,5-dimethyl-4-oxo-2-thioxoimidazolidin-1-yl)-2-ethylphenoxy)ethyl)piperidin-1-yl)-N-(3-cyano-5-(2,6-dioxopiperidin-3-ylamino)phenyl)acetamide] are “** (25%<Y<=35%)” and 100 to 500 nM.
`CCc1cc(N2C(=S)N(c3ccc(C#N)c(C(F)(F)F)c3)C(=O)C23CCC3)ccc1OCCC1CCN([C@H](C)C(=O)Nc2cccc(NC3CCC(=O)NC3=O)c2)CC1` (stereo partly drawn) [Cmpd 60, (2R)-2-(4-(2-(4-(7-(4-cyano-3-(trifluoromethyl)phenyl)-8-oxo-6-thioxo-5,7-diazaspiro[3.4]octan-5-yl)-2-ethylphenoxy)ethyl)piperidin-1-yl)-N-(3-(2,6-dioxopiperidin-3-ylamino)phenyl)propanamide]: the “Y (lowest measured AR level normalized to DMSO control)” value is “** (25%<Y<=35%)”. Also, under “read-out: DC50”, the 50% degradation concentration (DC50) fell in the range of 100 to 500 nM.
